Among the data in US20260078120A1, “SUBSTITUTED PYRIDOPYRIMIDINONES” (MIRATI THERAPEUTICS, INC., priority 2022, published 2026) are IC50 values, retold here.

Assay [1] has as its system T47D (PI3Kα H1047R mutant) cells. Put plainly: CellTiter-Glo 2.0 luminescent cell viability assay, 72 hours, T47D cells. It counts as cell-based. The conditions noted are these: Homo sapiens, T47D, 72 h, T47D (PI3Kα H1047R mutant) cells, CellTiter-Glo, approximately 72 hours; read-out: T47D (H1047R mutant) Viability IC50. The method, boiled down: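 Viability was measured by CellTiter-Glo 2.0 luminescence after approximately 72 h of compound exposure at 37° C. Plating was 1000 cells per well the day before dosing, with ten 1:4 dilutions from a 10 µM top concentration. Values as percent of vehicle were fitted by variable-slope log(inhibitor) regression to give IC50.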
On the technique in general: Cellular ATP, detected with luciferase, serves as a proxy for viable cell number.

In assay [2] the test system is SKBR3 (PI3Kα wild type) cells. Put plainly: CellTiter-Glo 2.0 luminescent cell viability assay, 72 hours, SKBR3 cells. It counts as cell-based. To be noted: Homo sapiens, SK-BR-3, 72 h, SKBR3 (PI3Kα wild type) cells, CellTiter-Glo, approximately 72 hours; read-out: SKBR3 (WT) Viability IC50. The method, boiled down: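 Viability measured via CTG luminescence following roughly 72 hours of compound exposure at 37° C. Dosing used a 10 um starting concentration diluted 1:4 over 10 points; percent-of-vehicle data fitted with a variable-slope four-parameter model for IC50.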

Structures are written as SMILES.

On to `Cc1cc([C@@H](C)Nc2ccccc2C(=O)O)c2nc(N3CCn4cc(C(F)(F)F)nc4C3)c(C)c(=O)n2c1` [Example 11-433, (R)-2-((1-(3,7-dimethyl-4-oxo-2-(2-(trifluoromethyl)-5,6-dihydroimidazo[1,2-a]pyrazin-7(8H)-yl)-4H-pyrido[1,2-a]pyrimidin-9-yl)ethyl)amino)benzoic acid], for which the IC50 is 3010 nM in assay [1] and greater than 10000 nM in assay [2].
As to `Cc1cc([C@@H](C)Nc2ccccc2C(=O)O)c2nc(N3CCN(c4ccc(C(F)(F)F)cn4)CC3)c(C)c(=O)n2c1` [Example 11-434, (R)-2-((1-(3,7-dimethyl-4-oxo-2-(4-(5-(trifluoromethyl)pyridin-2-yl)piperazin-1-yl)-4H-pyrido[1,2-a]pyrimidin-9-yl)ethyl)amino)benzoic acid], the IC50 in assay [1] amounted to 138 nM; in assay [2], 8310 nM.
As for `Cc1cc([C@@H](C)Nc2ccccc2C(=O)O)c2nc(N3CCN(c4nc5cc(C(F)(F)F)ccc5s4)CC3)c(C)c(=O)n2c1` [Example 11-435, (R)-2-((1-(3,7-dimethyl-4-oxo-2-(4-(5-(trifluoromethyl)benzo[d]thiazol-2-yl)piperazin-1-yl)-4H-pyrido[1,2-a]pyrimidin-9-yl)ethyl)amino)benzoic acid], the results for the IC50 in assay [1] and in assay [2] were 356 nM and greater than 10000 nM, respectively.
Take `Cc1cc([C@@H](C)Nc2ccccc2C(=O)O)c2nc(N3CCC4(C3)CC(F)(F)C4(F)F)c(C)c(=O)n2c1` (stereo partly drawn) [Example 11-436, 2-(((1R)-1-(3,7-dimethyl-4-oxo-2-(1,1,2,2-tetrafluoro-6-azaspiro[3.4]octan-6-yl)-4H-pyrido[1,2-a]pyrimidin-9-yl)ethyl)amino)benzoic acid]: the IC50 in assay [1] was 641 nM; in assay [2] it was greater than 10000 nM.
With `Cc1cc([C@@H](C)Nc2ccccc2C(=O)O)c2nc(N3CCN(c4cccc(C#N)c4C)CC3)c(C)c(=O)n2c1` [Example 11-438, (R)-2-((1-(2-(4-(3-cyano-2-methylphenyl)piperazin-1-yl)-3,7-dimethyl-4-oxo-4H-pyrido[1,2-a]pyrimidin-9-yl)ethyl)amino)benzoic acid], the IC50 in assay [1] is 188 nM; in assay [2] it was greater than 10000 nM.
In the case of `Cc1cc([C@@H](C)Nc2ccccc2C(=O)O)c2nc(N3CCN(c4cccc(C(F)(F)F)c4)CC3)c(C)c(=O)n2c1` [Example 11-439, (R)-2-((1-(3,7-dimethyl-4-oxo-2-(4-(3-(trifluoromethyl)phenyl)piperazin-1-yl)-4H-pyrido[1,2-a]pyrimidin-9-yl)ethyl)amino)benzoic acid], the results for the IC50 in assay [1] and in assay [2] were 241 nM and greater than 10000 nM, respectively.
For the compound `Cc1cc([C@@H](C)Nc2ccccc2C(=O)O)c2nc(N3CCN(c4ccccc4F)CC3)c(C)c(=O)n2c1` [Example 11-440, (R)-2-((1-(2-(4-(2-fluorophenyl)piperazin-1-yl)-3,7-dimethyl-4-oxo-4H-pyrido[1,2-a]pyrimidin-9-yl)ethyl)amino)benzoic acid], the IC50 in assay [1] was 252 nM; in assay [2], greater than 10000 nM.
`Cc1cc([C@@H](C)Nc2ccccc2C(=O)O)c2nc(N3CCN(c4ccncc4)CC3)c(C)c(=O)n2c1` [Example 11-441, (R)-2-((1-(3,7-dimethyl-4-oxo-2-(4-(pyridin-4-yl)piperazin-1-yl)-4H-pyrido[1,2-a]pyrimidin-9-yl)ethyl)amino)benzoic acid]: the IC50 was 408 nM in assay [1] and greater than 10000 nM in assay [2].
Take `Cc1cc([C@@H](C)Nc2ccccc2C(=O)O)c2nc(N3CC(c4cc(C(F)(F)F)on4)C3)c(C)c(=O)n2c1` [Example 11-442, (R)-2-((1-(3,7-dimethyl-4-oxo-2-(3-(5-(trifluoromethyl)isoxazol-3-yl)azetidin-1-yl)-4H-pyrido[1,2-a]pyrimidin-9-yl)ethyl)amino)benzoic acid]: the 50% inhibitory concentration (IC50) was 871 nM in assay [1] and greater than 10000 nM in assay [2].
As to `Cc1cc([C@@H](C)Nc2ccccc2C(=O)O)c2nc(N3C[C@H]4C[C@@H]3CN4CC(F)F)c(C)c(=O)n2c1` [Example 11-443, 2-(((R)-1-(2-((1R,4R)-5-(2,2-difluoroethyl)-2,5-diazabicyclo[2.2.1]heptan-2-yl)-3,7-dimethyl-4-oxo-4H-pyrido[1,2-a]pyrimidin-9-yl)ethyl)amino)benzoic acid], the IC50 in assay [1] was 130 nM; in assay [2], greater than 10000 nM.
In the same order, the values of `Cc1cc([C@@H](C)Nc2ccccc2C(=O)O)c2nc(N3CC4CC(F)(F)CC4C3)c(C)c(=O)n2c1` (stereo partly drawn) [Example 11-444, 2-(((1R)-1-(2-(5,5-difluorohexahydrocyclopenta[c]pyrrol-2(1H)-yl)-3,7-dimethyl-4-oxo-4H-pyrido[1,2-a]pyrimidin-9-yl)ethyl)amino)benzoic acid] are 234 nM and greater than 10000 nM.
Take `Cc1cc([C@@H](C)Nc2ccccc2C(=O)O)c2nc(N3C[C@@H]4[C@H](C3)[C@H]4C(F)(F)F)c(C)c(=O)n2c1` [Example 11-445, 2-(((R)-1-(3,7-dimethyl-4-oxo-2-((1R,5S,6R)-6-(trifluoromethyl)-3-azabicyclo[3.1.0]hexan-3-yl)-4H-pyrido[1,2-a]pyrimidin-9-yl)ethyl)amino)benzoic acid]: the IC50 in assay [1] was 287 nM; in assay [2] it was greater than 10000 nM.
With `Cc1cc([C@@H](C)Nc2ccccc2C(=O)O)c2nc(N3CCN(c4nc(C)cs4)CC3)c(C)c(=O)n2c1` [Example 11-446, (R)-2-((1-(3,7-dimethyl-2-(4-(4-methylthiazol-2-yl)piperazin-1-yl)-4-oxo-4H-pyrido[1,2-a]pyrimidin-9-yl)ethyl)amino)benzoic acid], the values for the IC50 in assay [1] and in assay [2] were 300 nM and greater than 10000 nM, respectively.
Take `Cc1cc([C@@H](C)Nc2ccccc2C(=O)O)c2nc(N3CCC4(CCC(F)(F)C4)C3)c(C)c(=O)n2c1` (stereo partly drawn) [Example 11-447, 2-(((1R)-1-(2-(7,7-difluoro-2-azaspiro[4.4]nonan-2-yl)-3,7-dimethyl-4-oxo-4H-pyrido[1,2-a]pyrimidin-9-yl)ethyl)amino)benzoic acid]: the IC50 in assay [1] is 645 nM; in assay [2], greater than 10000 nM.

In general, IC50 refers to the concentration that gives 50% inhibition.
